Experimental findings from PubChem BioAssay AID1259407 (Chemical Carcinogenesis Research Information System (CCRIS), 2018) are described below.

This data set deals with CCRIS mutagenicity, Ames/micronucleus/aberration tests. The experiment in a line: CCRIS mutagenicity studies.
[1] abbreviates: Test System: AMES SALMONELLA TYPHIMURIUM, Strain/Indicator: TA98, Metabolic Activation: NONE, Method: STANDARD PLATE.
Where [2] appears, read: Test System: AMES SALMONELLA TYPHIMURIUM, Strain/Indicator: TA98, Metabolic Activation: RAT, LIVER, S-9, AROCLOR 1254, Method: STANDARD PLATE.
[3] abbreviates: Test System: AMES SALMONELLA TYPHIMURIUM, Strain/Indicator: TA100, Metabolic Activation: NONE, Method: STANDARD PLATE.
[4] abbreviates: Test System: AMES SALMONELLA TYPHIMURIUM, Strain/Indicator: TA100, Metabolic Activation: RAT, LIVER, S-9, AROCLOR 1254, Method: STANDARD PLATE.
Where [5] appears, read: Test System: AMES SALMONELLA TYPHIMURIUM, Strain/Indicator: TA98, Metabolic Activation: NONE, Method: PREINCUBATION
The mark [6] stands for this setting: Test System: AMES SALMONELLA TYPHIMURIUM, Strain/Indicator: TA100, Metabolic Activation: NONE, Method: PREINCUBATION

Active and inactive are the calls of the source. The rule behind the calls is not given here.

Take `CC(C)NNC(=O)c1ccncc1`: the mutagenic call runs as follows: under setting [1], “inactive; negative”; under setting [2], “inactive; negative”; under setting [3], “inactive; negative”; under setting [4], “inactive; negative”; (Test System: AMES SALMONELLA TYPHIMURIUM, Strain/Indicator: TA1535, Metabolic Activation: NONE, Method: STANDARD PLATE) “inactive; negative”; (Test System: AMES SALMONELLA TYPHIMURIUM, Strain/Indicator: TA1535, Metabolic Activation: RAT, LIVER, S-9, AROCLOR 1254, Method: STANDARD PLATE) “inactive; negative”. Moreover, the mutagenic call is, setting by setting: (Test System: AMES SALMONELLA TYPHIMURIUM, Strain/Indicator: TA1537, Metabolic Activation: NONE, Method: STANDARD PLATE) “inactive; negative”; (Test System: AMES SALMONELLA TYPHIMURIUM, Strain/Indicator: TA1537, Metabolic Activation: RAT, LIVER, S-9, AROCLOR 1254, Method: STANDARD PLATE) “inactive; negative”.

As to `CC(=O)OCCCCONC(=O)c1ccccc1`, the mutagenic call is, setting by setting: under setting [1], “active; positive”; under setting [3], “active; positive”; (Test System: AMES SALMONELLA TYPHIMURIUM, Strain/Indicator: TA100, Metabolic Activation: RAT,S-9, AROCLOR, Method: STANDARD PLATE) “active; positive”.

For `Cc1nn(C)c(N)c1C(=O)c1ccccc1F`, the mutagenic call is, setting by setting: (Test System: AMES SALMONELLA TYPHIMURIUM, Strain/Indicator: TA98, Metabolic Activation: RAT, LIVER, S-9, AROCLOR 1254, Method: PREINCUBATION) “active; positive”; under setting [2], “active; positive”; (Test System: AMES SALMONELLA TYPHIMURIUM, Strain/Indicator: TA98, Metabolic Activation: RAT, LIVER, S-9, PHENOBARBITAL, Method: PREINCUBATION) “active; positive”; (Test System: AMES SALMONELLA TYPHIMURIUM, Strain/Indicator: TA100, Metabolic Activation: RAT, LIVER, S-9, AROCLOR 1254, Method: PREINCUBATION) “active; positive”; under setting [4], “active; positive”; (Test System: AMES SALMONELLA TYPHIMURIUM, Strain/Indicator: TA100, Metabolic Activation: RAT, LIVER, S-9, PHENOBARBITAL, Method: PREINCUBATION) “active; positive”.

On to `COc1ccc2c(c1)c(CC(=O)O)c(C)n2C(=O)c1ccc(Cl)cc1`, for which the mutagenic call reads like this: (Test System: AMES SALMONELLA TYPHIMURIUM, Strain/Indicator: TA98, Metabolic Activation: GUINEA PIG, LIVER, S-9, PCB, Method: PREINCUBATION) “inactive; negative”; (Test System: AMES SALMONELLA TYPHIMURIUM, Strain/Indicator: TA98, Metabolic Activation: HAMSTER, LIVER, S-9, PCB, Method: PREINCUBATION) “inactive; negative”; (Test System: AMES SALMONELLA TYPHIMURIUM, Strain/Indicator: TA98, Metabolic Activation: MOUSE, LIVER, S-9, PCB, Method: PREINCUBATION) “inactive; negative”; under setting [5], “inactive; negative”; (Test System: AMES SALMONELLA TYPHIMURIUM, Strain/Indicator: TA98, Metabolic Activation: RAT, LIVER, S-9, PCB, Method: PREINCUBATION) “inactive; negative”; (Test System: AMES SALMONELLA TYPHIMURIUM, Strain/Indicator: TA98, Metabolic Activation: RAT, LIVER, S-9, PCB, Method: STANDARD PLATE) “inactive; negative”. Moreover, the mutagenic call was “inactive; negative” (Test System: AMES SALMONELLA TYPHIMURIUM, Strain/Indicator: TA100, Metabolic Activation: GUINEA PIG, LIVER, S-9, PCB, Method: PREINCUBATION); “inactive; negative” (Test System: AMES SALMONELLA TYPHIMURIUM, Strain/Indicator: TA100, Metabolic Activation: HAMSTER, LIVER, S-9, PCB, Method: PREINCUBATION); “inactive; negative” (Test System: AMES SALMONELLA TYPHIMURIUM, Strain/Indicator: TA100, Metabolic Activation: MOUSE, LIVER, S-9, PCB, Method: PREINCUBATION); “inactive; negative” under setting [6]; “active; positive” (Test System: AMES SALMONELLA TYPHIMURIUM, Strain/Indicator: TA100, Metabolic Activation: RAT, LIVER, S-9, PCB, Method: PREINCUBATION); “inactive; negative” (Test System: AMES SALMONELLA TYPHIMURIUM, Strain/Indicator: TA100, Metabolic Activation: RAT, LIVER, S-9, PCB, Method: STANDARD PLATE). The mutagenic call (Test System: AMES SALMONELLA TYPHIMURIUM, Strain/Indicator: TA1537, Metabolic Activation: RAT, LIVER, S-9, PCB, Method: STANDARD PLATE) is “inactive; negative”; the mutagenic call (Test System: AMES SALMONELLA TYPHIMURIUM, Strain/Indicator: TA1538, Metabolic Activation: RAT, LIVER, S-9, PCB, Method: STANDARD PLATE) was “inactive; negative”; the mutagenic call (Test System: E. COLI, Strain/Indicator: WP2 UVRA, Metabolic Activation: RAT, LIVER, S-9, PCB, Method: STANDARD PLATE) is “inactive; negative”.

As to `CC(C)CCCC(C)C1CCC2C3CC=C4CC(OCCO)CCC4(C)C3CCC12C` (centres undefined), the mutagenic call runs as follows: under setting [1], “inactive; negative”; (Test System: AMES SALMONELLA TYPHIMURIUM, Strain/Indicator: TA98, Metabolic Activation: RAT, LIVER, MICROSOMES, Method: STANDARD PLATE) “inactive; negative”; under setting [3], “inactive; negative”; (Test System: AMES SALMONELLA TYPHIMURIUM, Strain/Indicator: TA100, Metabolic Activation: RAT, LIVER, MICROSOMES, Method: STANDARD PLATE) “inactive; negative”.

Turning to `CC(=O)/C(C)=N/O`, the mutagenic call is, setting by setting: (Test System: AMES SALMONELLA TYPHIMURIUM, Strain/Indicator: TA98, Metabolic Activation: HAMSTER, LIVER, S-9, AROCLOR 1254 (10%), Method: PREINCUBATION) “inactive; negative”; under setting [5], “inactive; negative”; (Test System: AMES SALMONELLA TYPHIMURIUM, Strain/Indicator: TA98, Metabolic Activation: RAT, LIVER, S-9, AROCLOR 1254 (10%), Method: PREINCUBATION) “inactive; negative”; (Test System: AMES SALMONELLA TYPHIMURIUM, Strain/Indicator: TA100, Metabolic Activation: HAMSTER, LIVER, S-9, AROCLOR 1254 (10%), Method: PREINCUBATION) “inactive; negative”; under setting [6], “inactive; negative”; (Test System: AMES SALMONELLA TYPHIMURIUM, Strain/Indicator: TA100, Metabolic Activation: RAT, LIVER, S-9, AROCLOR 1254 (10%), Method: PREINCUBATION) “inactive; negative”. Also, the mutagenic call (Test System: AMES SALMONELLA TYPHIMURIUM, Strain/Indicator: TA1535, Metabolic Activation: HAMSTER, LIVER, S-9, AROCLOR 1254 (10%), Method: PREINCUBATION) is “inactive; negative”; the mutagenic call (Test System: AMES SALMONELLA TYPHIMURIUM, Strain/Indicator: TA1535, Metabolic Activation: NONE, Method: PREINCUBATION) is “inactive; negative”; the mutagenic call (Test System: AMES SALMONELLA TYPHIMURIUM, Strain/Indicator: TA1535, Metabolic Activation: RAT, LIVER, S-9, AROCLOR 1254 (10%), Method: PREINCUBATION) was “inactive; negative”; the mutagenic call (Test System: AMES SALMONELLA TYPHIMURIUM, Strain/Indicator: TA1537, Metabolic Activation: HAMSTER, LIVER, S-9, AROCLOR 1254 (10%), Method: PREINCUBATION) is “inactive; negative”; the mutagenic call (Test System: AMES SALMONELLA TYPHIMURIUM, Strain/Indicator: TA1537, Metabolic Activation: NONE, Method: PREINCUBATION) was “inactive; negative”; the mutagenic call (Test System: AMES SALMONELLA TYPHIMURIUM, Strain/Indicator: TA1537, Metabolic Activation: RAT, LIVER, S-9, AROCLOR 1254 (10%), Method: PREINCUBATION) is “inactive; negative”.

As to `COc1cc(O)c2c(O)c3c(=O)oc(C)cc3c(OC)c2c1`, the mutagenic call by setting is: (Test System: AMES SALMONELLA TYPHIMURIUM, Strain/Indicator: TA98, Metabolic Activation: MOUSE, LIVER, S-9, AROCLOR 1254, Method: STANDARD PLATE) “active; positive”; under setting [1], “active; positive”; (Test System: AMES SALMONELLA TYPHIMURIUM, Strain/Indicator: TA100, Metabolic Activation: MOUSE, LIVER, S-9, AROCLOR 1254, Method: STANDARD PLATE) “active; positive”; under setting [3], “active; positive”; (Test System: AMES SALMONELLA TYPHIMURIUM, Strain/Indicator: TA102, Metabolic Activation: MOUSE, LIVER, S-9, AROCLOR 1254, Method: STANDARD PLATE) “active; positive”; (Test System: AMES SALMONELLA TYPHIMURIUM, Strain/Indicator: TA102, Metabolic Activation: NONE, Method: STANDARD PLATE) “active; positive”.
